According to patent publication US10294202B2, “Pyrrolidinones as herbicides” (FMC Corporation, priority 2013, dated 2019):
Values joined by “and” are separate entries in the source; they are usually repeats but may differ in a detail not shown here. Identical values can stand only once.

How the values were obtained:
Experiment in all cases: Test G paddy mixture test (Colby)
[1] = system: transplanted japonica rice (ORYSA); assay type: in vivo, Oryza sativa; details: applied alone, 14 d
Protocol: (§1) Seeds of small-flower umbrella […], Cyperus difformis) and […], Heteranthera limosa) were sown on the soil surface in two separate quadrants of 11-cm (4-inch) tubs filled with steam pasteurized Tama soil. Simultaneously, plantings of […], Echinochloa crus-galli) and transplanted japonica rice (ORYSA, Oryza sativa) were established in separate “plug” flats. […] Herbicide application timing was targeted at the 2.0 to 2.5 leaf stage and the plants were treated with test chemicals formulated in a non-phytotoxic solvent. Treated plants and controls were maintained in a greenhouse for 14 d, after which time all species were compared to controls and visually evaluated. Plant response ratings are summarized in Tables G1 through G12, and are based on a scale of 0 to 100 where 0 is no effect and 100 is complete control. A dash (-) response means no test result. Colby's Equation was used to determine the herbicidal effects expected from the mixtures. Colby's Equation (Colby, S. R. “Calculating Synergistic and Antagonistic Responses of Herbicide Combinations,” Weeds, 15(1), pp 20-22 (1967)) calculates the expected additive effect of herbicidal mixtures and for two active ingredients is of the form: Pa+b=Pa+Pb-(PaPb/100) where • Pa+b is the percentage effect of the mixture expected from additive contribution of the individual components: • Pa is the observed percentage effect of the first active ingredient at the same use rate as in the mixture, and • Pb is the observed percentage effect of the second active ingredient at the same use rate as in the mixture. In the following Tables, rates are shown in grams of active ingredient per […]); “Obsd.” is the observed effect. “Exp.” is the expected effect calculated from Colby's Equation.

[2] = system: small-flower umbrella sedge (CYPDI); assay type: in vivo, Cyperus difformis; details: applied alone, 14 d; for CYPDI Obsd. plant response rating (scale 0 to 100): flooded; for CYPDI Obsd.: scale 0-100
Protocol: as §1

[3] = system: ducksalad (HETLI); assay type: in vivo, Heteranthera limosa; details: applied alone, 14 d; for HETLI Obsd. plant response rating (scale 0 to 100): flooded; for HETLI Obsd.: scale 0-100
Protocol: as §1

[4] = system: barnyardgrass (ECHCG); assay type: in vivo, Echinochloa crus-galli; details: applied alone, 14 d; for ECHCG Obsd. plant response rating (scale 0 to 100): flooded
Protocol: as §1

For `CCN(C(=O)n1nnn(-c2ccccc2Cl)c1=O)C1CCCCC1` [Fentrazamide], the “ORYSA Obsd. plant response rating (scale 0 to 100)” value ([1]; 100 g a.i./ha, flooded) was 0, the “CYPDI Obsd. plant response rating (scale 0 to 100)” value ([2]; 100 g a.i./ha) was 90 and 100 and the “CYPDI Obsd. plant response rating (scale 0 to 100)” value ([2]; 200 g a.i./ha) was 100. The “HETLI Obsd. plant response rating (scale 0 to 100)” value ([3]; 100 g a.i./ha) was 85 and 100, the “HETLI Obsd. plant response rating (scale 0 to 100)” value ([3]; 200 g a.i./ha) was 100 and the “ECHCG Obsd. plant response rating (scale 0 to 100)” value ([4]; 100 g a.i./ha) was 50 and 85. The “ECHCG Obsd. plant response rating (scale 0 to 100)” value ([4]; 200 g a.i./ha) was 95 and 85.
With `COc1nc(OC)nc(C(=O)c2cccc(F)c2N(C)S(=O)(=O)C(F)F)n1` [Triafamone, N-[2-[(4,6-dimethoxy-1,3,5-triazin-2-yl)carbonyl]-6-fluorophenyl]-1,1-difluoro-N-methylmethanesulfonamide] the “ORYSA Obsd.” value ([1]; 20 g a.i./ha, scale 0-100) was 0, the “CYPDI Obsd.” value ([2]; 20 g a.i./ha) was 0 and the “HETLI Obsd.” value ([3]; 20 g a.i./ha) was 0. The “ECHCG Obsd.” value ([4]; 20 g a.i./ha, scale 0-100) was 90 and 85.
With `CN(C(=O)COc1nc2ccccc2s1)c1ccccc1` [Mefenecet] the “CYPDI Obsd.” value ([2]; 300 g a.i./ha) was 100 and the “HETLI Obsd.” value ([3]; 300 g a.i./ha) was 100.
